Test results published in ChEMBL document CHEMBL3399966, “Isosteric replacements of the carboxylic acid of drug candidate VX-787: Effect of charge on antiviral potency and kinase activity of azaindole-based influenza PB2 inhibitors” (Bioorg Med Chem Lett, 2015).

Legend:
[1] = target: cAMP-dependent protein kinase catalytic subunit alpha (Homo sapiens, UniProt P17612); assay: Inhibition of PKAa (unknown origin)
[2] = target: Phosphatidylinositol 4,5-bisphosphate 3-kinase catalytic subunit beta isoform (Homo sapiens, UniProt P42338); assay: Inhibition of PI3Kbeta (unknown origin)
[3] = target: Hepatocyte growth factor receptor (Homo sapiens, UniProt P08581); assay: Inhibition of MET (unknown origin)
[4] = target: Mitogen-activated protein kinase 10 (Homo sapiens, UniProt P53779); assay: Inhibition of JNK3 (unknown origin)
[5] = target: Rho-associated protein kinase (Homo sapiens, UniProt O75116+Q13464); assay: Inhibition of ROCK (unknown origin); assay type: protein-complex assay
Influenza A virus [6] = assay: Antiviral activity against influenza A virus A/PR/8/34 strain incubated with MDCK cells assessed as reduction of viral RNA level equal to 1% of control level after 72 hrs by branched DNA assay; assay type: functional, organism-based; details: A/Puerto Rico/8/1934(H1N1)
[7] = target: Tyrosine-protein kinase JAK2 (Homo sapiens, UniProt O60674); assay: Inhibition of JAK2 (unknown origin)
[8] = target: Phosphatidylinositol 4,5-bisphosphate 3-kinase catalytic subunit alpha isoform (Homo sapiens, UniProt P42336); assay: Inhibition of PI3Kalpha (unknown origin)
[9] = target: T1, Phosphatidylinositol 4,5-bisphosphate 3-kinase catalytic subunit delta isoform (Homo sapiens, UniProt O00329); assay: Inhibition of PI3Kdelta (unknown origin)
T1 sequence (O00329 whole entry): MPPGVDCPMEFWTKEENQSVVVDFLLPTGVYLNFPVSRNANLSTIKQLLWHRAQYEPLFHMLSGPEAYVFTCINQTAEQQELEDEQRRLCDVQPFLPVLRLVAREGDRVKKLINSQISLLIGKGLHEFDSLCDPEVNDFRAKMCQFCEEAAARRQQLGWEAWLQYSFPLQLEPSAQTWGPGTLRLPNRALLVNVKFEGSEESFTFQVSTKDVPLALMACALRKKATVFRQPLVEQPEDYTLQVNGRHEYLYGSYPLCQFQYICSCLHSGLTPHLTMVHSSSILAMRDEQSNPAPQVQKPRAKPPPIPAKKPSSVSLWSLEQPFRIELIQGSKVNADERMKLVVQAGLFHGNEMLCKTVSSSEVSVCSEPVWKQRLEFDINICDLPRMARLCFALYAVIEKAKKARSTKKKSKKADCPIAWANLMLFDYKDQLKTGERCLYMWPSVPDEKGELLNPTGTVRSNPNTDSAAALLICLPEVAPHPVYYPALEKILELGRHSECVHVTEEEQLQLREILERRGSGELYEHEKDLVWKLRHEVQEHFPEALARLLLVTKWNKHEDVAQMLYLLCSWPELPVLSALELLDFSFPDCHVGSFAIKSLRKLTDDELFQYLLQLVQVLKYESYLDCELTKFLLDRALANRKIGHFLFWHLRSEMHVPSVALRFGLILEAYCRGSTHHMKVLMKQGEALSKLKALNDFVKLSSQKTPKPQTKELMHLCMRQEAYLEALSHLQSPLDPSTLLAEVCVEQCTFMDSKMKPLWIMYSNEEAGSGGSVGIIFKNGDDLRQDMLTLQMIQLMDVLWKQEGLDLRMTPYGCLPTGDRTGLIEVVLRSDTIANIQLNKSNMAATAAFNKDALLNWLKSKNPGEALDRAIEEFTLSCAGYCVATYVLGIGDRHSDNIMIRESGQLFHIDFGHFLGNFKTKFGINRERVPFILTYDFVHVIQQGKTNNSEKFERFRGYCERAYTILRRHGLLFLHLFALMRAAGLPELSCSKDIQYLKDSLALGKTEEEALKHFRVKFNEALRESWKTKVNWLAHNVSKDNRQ

Influenza A virus [10] = assay: Antiviral activity against Influenza A virus A/PR/8/34 strain incubated with MDCK cells assessed as cell protection after 72 hrs by phenotypic cell protection assay; assay type: functional, organism-based; details: A/Puerto Rico/8/1934(H1N1)
[11] = target: Cyclin-dependent kinase 2 (Homo sapiens, UniProt P24941); assay: Inhibition of CDK2 (unknown origin)
[12] = target: Phosphatidylinositol 4,5-bisphosphate 3-kinase catalytic subunit gamma isoform (Homo sapiens, UniProt P48736); assay: Inhibition of PI3Kgamma (unknown origin)
[13] = target: Proto-oncogene tyrosine-protein kinase Src (Homo sapiens, UniProt P12931); assay: Inhibition of SRC (unknown origin)
[14] = target: Tyrosine-protein kinase SYK (Homo sapiens, UniProt P43405); assay: Inhibition of SYK (unknown origin)
[15] = target: T2, Interleukin-1 receptor-associated kinase 4 (Homo sapiens, UniProt Q9NWZ3); assay: Inhibition of IRAK4 (unknown origin)
T2 sequence (Q9NWZ3 whole entry): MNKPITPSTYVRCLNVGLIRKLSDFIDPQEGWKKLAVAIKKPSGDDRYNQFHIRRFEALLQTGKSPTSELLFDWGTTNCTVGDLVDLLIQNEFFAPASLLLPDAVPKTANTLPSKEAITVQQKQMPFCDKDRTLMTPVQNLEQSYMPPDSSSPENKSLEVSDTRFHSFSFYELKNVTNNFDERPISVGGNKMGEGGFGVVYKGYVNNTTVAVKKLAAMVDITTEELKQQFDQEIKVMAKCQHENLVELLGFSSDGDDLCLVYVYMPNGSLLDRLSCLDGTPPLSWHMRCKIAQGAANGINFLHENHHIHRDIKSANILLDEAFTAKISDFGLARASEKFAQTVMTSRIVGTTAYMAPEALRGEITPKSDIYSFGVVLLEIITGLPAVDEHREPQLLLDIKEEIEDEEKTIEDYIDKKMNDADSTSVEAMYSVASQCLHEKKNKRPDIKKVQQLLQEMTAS

[16] = target: Glycogen synthase kinase-3 (Homo sapiens, UniProt P49840+P49841); assay: Inhibition of GSK3 (unknown origin); assay type: protein assay
[17] = target: Vascular endothelial growth factor receptor 2 (Homo sapiens, UniProt P35968); assay: Inhibition of KDR (unknown origin)
[18] = target: T3, Receptor-type tyrosine-protein kinase FLT3 (Homo sapiens, UniProt P36888); assay: Inhibition of FLT3 (unknown origin)
T3 sequence (P36888 whole entry): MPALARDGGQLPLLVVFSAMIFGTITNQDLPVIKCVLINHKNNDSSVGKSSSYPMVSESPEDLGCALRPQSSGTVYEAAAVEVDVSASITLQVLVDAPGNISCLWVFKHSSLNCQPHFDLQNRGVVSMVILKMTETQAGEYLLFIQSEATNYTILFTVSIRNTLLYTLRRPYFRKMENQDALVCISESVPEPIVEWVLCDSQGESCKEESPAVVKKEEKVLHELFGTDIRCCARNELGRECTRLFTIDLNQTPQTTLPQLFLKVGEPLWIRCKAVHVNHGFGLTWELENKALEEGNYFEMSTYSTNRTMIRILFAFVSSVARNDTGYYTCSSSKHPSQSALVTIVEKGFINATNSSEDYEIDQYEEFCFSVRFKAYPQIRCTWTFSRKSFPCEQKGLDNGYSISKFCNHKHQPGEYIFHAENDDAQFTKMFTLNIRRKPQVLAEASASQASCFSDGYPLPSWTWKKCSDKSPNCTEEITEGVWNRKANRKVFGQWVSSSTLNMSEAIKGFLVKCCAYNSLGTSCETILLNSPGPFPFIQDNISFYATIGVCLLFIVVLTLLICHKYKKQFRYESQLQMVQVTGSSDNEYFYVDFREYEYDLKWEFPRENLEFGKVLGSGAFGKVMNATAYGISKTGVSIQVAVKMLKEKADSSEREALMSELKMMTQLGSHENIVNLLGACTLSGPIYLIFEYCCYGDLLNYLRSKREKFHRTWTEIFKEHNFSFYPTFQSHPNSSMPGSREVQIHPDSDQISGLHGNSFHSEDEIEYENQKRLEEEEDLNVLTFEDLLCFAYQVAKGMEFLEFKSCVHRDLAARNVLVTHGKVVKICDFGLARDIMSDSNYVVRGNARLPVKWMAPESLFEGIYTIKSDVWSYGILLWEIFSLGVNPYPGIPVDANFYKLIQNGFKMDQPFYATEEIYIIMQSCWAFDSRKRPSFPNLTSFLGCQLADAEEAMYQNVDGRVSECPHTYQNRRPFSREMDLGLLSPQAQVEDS

[19] = target: Serine/threonine-protein kinase PLK1 (Homo sapiens, UniProt P53350); assay: Inhibition of PLK (unknown origin)
Chain of Serine/threonine-protein kinase PLK1 (P53350 whole entry): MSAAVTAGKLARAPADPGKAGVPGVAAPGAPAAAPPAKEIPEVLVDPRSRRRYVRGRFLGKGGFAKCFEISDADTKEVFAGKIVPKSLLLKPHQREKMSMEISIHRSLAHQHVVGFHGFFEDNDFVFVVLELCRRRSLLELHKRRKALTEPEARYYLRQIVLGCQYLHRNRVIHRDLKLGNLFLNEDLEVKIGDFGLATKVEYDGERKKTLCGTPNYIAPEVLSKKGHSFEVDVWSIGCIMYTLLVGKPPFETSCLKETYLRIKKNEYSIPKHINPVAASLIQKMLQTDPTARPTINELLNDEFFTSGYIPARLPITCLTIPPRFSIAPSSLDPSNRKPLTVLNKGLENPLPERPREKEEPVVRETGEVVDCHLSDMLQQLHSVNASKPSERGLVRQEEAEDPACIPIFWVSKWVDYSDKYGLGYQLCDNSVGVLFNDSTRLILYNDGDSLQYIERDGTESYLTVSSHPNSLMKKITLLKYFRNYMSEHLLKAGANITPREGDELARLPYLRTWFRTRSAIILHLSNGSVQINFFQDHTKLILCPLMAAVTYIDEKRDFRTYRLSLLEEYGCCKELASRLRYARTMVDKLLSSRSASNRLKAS

Chain of Proto-oncogene tyrosine-protein kinase Src (P12931 2-536 limits assumed): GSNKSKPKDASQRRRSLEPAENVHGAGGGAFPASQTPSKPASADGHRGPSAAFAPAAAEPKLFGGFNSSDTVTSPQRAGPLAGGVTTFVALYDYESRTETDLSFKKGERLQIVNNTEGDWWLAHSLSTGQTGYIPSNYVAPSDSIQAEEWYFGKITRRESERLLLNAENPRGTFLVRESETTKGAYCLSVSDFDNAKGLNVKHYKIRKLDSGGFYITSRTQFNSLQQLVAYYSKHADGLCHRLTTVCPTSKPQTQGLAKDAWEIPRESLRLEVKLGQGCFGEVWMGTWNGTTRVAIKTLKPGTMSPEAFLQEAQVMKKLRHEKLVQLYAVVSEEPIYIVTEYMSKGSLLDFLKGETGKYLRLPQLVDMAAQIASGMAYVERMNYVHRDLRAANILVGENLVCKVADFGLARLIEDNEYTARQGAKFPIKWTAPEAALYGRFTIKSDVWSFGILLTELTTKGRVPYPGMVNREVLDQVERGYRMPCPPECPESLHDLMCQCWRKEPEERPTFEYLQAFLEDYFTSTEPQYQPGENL
Chain of Phosphatidylinositol 4,5-bisphosphate 3-kinase catalytic subunit alpha isoform (P42336 whole entry, canonical isoform): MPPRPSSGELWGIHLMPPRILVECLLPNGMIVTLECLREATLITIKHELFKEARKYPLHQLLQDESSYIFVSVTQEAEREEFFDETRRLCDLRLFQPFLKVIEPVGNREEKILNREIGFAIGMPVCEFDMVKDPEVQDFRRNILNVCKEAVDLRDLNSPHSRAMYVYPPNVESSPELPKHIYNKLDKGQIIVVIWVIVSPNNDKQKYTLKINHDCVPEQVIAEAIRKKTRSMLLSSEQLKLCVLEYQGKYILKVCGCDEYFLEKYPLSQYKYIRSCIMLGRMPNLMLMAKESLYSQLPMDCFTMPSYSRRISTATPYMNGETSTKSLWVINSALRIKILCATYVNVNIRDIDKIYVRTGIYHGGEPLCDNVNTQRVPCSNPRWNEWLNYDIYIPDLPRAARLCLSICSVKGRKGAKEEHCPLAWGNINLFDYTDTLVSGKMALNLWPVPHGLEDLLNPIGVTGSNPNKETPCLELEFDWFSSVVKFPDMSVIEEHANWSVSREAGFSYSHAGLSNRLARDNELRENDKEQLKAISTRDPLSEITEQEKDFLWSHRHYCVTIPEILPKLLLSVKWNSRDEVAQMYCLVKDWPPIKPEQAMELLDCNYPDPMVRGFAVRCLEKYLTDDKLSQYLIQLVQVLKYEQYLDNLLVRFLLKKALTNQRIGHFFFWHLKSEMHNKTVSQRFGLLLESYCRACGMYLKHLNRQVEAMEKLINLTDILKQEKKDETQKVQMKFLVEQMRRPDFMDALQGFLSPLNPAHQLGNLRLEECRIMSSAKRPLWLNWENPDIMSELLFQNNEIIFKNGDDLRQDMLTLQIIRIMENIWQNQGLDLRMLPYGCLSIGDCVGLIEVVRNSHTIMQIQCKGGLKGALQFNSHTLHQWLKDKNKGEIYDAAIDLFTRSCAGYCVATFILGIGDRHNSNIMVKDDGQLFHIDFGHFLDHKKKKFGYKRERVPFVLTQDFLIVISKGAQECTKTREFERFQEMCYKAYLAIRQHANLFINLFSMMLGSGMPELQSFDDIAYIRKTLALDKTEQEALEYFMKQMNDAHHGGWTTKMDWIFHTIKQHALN
Chain of Phosphatidylinositol 4,5-bisphosphate 3-kinase catalytic subunit beta isoform (P42338 whole entry, canonical isoform): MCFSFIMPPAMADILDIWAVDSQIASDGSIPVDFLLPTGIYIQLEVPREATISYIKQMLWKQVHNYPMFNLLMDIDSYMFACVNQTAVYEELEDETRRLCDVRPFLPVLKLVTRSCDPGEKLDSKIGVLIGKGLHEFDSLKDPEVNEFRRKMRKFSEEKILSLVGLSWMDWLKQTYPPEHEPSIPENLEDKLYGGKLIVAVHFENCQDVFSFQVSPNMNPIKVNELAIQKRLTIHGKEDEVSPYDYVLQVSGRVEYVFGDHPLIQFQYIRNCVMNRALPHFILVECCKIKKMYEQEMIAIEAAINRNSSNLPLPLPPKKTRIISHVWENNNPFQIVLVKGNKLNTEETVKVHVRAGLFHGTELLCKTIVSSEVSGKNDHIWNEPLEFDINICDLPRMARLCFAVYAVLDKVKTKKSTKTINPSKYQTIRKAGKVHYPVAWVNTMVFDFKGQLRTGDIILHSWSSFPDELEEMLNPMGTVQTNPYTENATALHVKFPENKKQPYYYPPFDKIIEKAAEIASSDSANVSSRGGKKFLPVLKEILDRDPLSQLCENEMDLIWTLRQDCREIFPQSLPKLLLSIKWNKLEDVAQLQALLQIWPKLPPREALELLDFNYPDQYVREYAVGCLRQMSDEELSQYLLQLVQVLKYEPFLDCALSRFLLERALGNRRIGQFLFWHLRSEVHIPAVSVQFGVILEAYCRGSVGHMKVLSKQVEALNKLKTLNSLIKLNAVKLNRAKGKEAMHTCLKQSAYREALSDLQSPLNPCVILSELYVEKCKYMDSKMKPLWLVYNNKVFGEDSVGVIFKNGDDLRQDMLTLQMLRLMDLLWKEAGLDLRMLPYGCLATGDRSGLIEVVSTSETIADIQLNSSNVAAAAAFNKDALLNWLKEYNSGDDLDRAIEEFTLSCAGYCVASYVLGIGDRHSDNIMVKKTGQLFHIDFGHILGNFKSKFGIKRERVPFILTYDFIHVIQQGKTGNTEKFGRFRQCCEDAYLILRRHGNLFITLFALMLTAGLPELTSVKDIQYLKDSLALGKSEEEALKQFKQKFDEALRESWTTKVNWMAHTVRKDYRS
Chain of Phosphatidylinositol 4,5-bisphosphate 3-kinase catalytic subunit gamma isoform (P48736 whole entry, canonical isoform): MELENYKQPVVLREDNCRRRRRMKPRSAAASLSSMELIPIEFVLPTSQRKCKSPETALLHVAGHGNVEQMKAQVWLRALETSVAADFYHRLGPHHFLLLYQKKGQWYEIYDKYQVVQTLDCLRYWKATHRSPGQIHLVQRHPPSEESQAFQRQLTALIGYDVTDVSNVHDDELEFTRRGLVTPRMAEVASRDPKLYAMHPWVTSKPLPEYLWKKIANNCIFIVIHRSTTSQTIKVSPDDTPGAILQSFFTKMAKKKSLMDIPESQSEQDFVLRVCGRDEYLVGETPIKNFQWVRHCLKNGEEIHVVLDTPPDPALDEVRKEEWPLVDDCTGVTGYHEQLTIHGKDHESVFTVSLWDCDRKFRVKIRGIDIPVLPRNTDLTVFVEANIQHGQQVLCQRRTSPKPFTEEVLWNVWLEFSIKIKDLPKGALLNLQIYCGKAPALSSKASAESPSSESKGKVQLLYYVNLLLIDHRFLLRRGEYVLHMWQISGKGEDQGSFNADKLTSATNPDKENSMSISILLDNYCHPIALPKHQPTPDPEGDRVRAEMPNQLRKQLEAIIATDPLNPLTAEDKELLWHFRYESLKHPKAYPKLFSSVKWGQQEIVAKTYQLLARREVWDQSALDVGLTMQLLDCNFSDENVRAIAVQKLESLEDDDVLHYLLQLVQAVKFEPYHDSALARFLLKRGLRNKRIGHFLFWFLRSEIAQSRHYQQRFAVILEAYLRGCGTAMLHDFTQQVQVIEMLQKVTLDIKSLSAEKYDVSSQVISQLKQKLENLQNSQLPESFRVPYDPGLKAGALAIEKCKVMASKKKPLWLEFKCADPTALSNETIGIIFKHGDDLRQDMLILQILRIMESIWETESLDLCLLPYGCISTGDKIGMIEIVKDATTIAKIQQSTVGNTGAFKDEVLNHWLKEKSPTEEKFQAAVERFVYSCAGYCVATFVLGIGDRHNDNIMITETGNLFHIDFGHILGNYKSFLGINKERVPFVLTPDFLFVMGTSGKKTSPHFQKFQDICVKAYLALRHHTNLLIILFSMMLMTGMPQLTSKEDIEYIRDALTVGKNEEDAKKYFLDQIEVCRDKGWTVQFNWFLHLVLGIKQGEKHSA
Chain of Mitogen-activated protein kinase 10 (P53779 whole entry): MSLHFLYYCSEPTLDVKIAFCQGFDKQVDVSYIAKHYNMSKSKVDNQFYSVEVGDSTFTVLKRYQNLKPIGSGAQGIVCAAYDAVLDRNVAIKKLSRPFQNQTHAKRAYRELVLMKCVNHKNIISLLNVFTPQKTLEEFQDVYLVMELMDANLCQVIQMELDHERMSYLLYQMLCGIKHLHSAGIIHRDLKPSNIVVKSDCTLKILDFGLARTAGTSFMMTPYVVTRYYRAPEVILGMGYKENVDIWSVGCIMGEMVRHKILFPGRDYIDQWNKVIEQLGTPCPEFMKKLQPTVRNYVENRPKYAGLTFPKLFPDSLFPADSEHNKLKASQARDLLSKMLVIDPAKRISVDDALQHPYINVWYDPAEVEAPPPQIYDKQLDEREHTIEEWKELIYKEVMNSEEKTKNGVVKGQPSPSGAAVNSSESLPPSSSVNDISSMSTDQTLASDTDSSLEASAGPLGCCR

Row | SMILES | Ki [1] [nM] | Ki [2] [nM] | Ki [3] [nM] | Ki [4] [nM] | Ki [5] [nM] | EC50 (Influenza A virus [6]) [nM] | EC99 (Influenza A virus [6]) [µM] | Ki [7] [nM] | Ki [8] [nM] | Ki [9] [nM] | IC50 (Influenza A virus [10]) [nM] | Ki [11] [nM] | Ki [12] [nM] | Ki [13] [nM] | Ki [14] [nM] | Ki [15] [nM] | Ki [16] [nM] | Ki [17] [nM] | Ki [18] [nM] | Ki [19] [nM]
1 | Oc1cc([C@H]2C3CCC(CC3)[C@@H]2Nc2nc(-c3c[nH]c4ncc(F)cc34)ncc2F)no1 (mixture of isomers) | 590 | > 4000 | > 4000 | > 4000 | > 4000 | 11 | 0.062 | 200 | 880 | > 4000 | 72 | > 4000 | 750 | > 4000 | > 4000 | > 4000 | 60 | > 4000 | 800 | 1000
2 | CC(O)[C@H]1C2CCC(CC2)[C@@H]1Nc1nc(-c2c[nH]c3ncc(F)cc23)ncc1F (mixture of isomers) | > 4000 | > 4000 | > 4000 | > 4000 | 310 | 490 | > 3.1 | 240 | > 4000 | > 4000 | 310 | 1200 | 780 | 970 | > 4000 | 3300 | 66 | 2000 | 150 | 1000
3 | Cc1noc([C@H]2C3CCC(CC3)[C@@H]2Nc2nc(-c3c[nH]c4ncc(F)cc34)ncc2F)n1 (mixture of isomers) | 1100 | 2300 | > 4000 | > 4000 | > 4000 | 120 | 1.2 | > 4000 | > 4000 | 2500 | 210 | > 4000 | 1400 | 2400 | > 4000 | > 4000 | 980 | > 4000 | 970 | > 4000
4 | Cc1nnc([C@H]2C3CCC(CC3)[C@@H]2Nc2nc(-c3c[nH]c4ncc(F)cc34)ncc2F)o1 (mixture of isomers) | > 4000 | > 4000 | > 4000 | > 4000 | > 4000 | 170 | 1.9 | > 4000 | > 4000 | 1200 | 130 | > 4000 | 2800 | > 4000 | > 4000 | > 4000 | 1100 | > 4000 | 1800 | > 4000
